Experimental data taken from patent US20250215039A1, “NUCLEOSIDES FOR TREATING CANCER” (PRIMEFOUR THERAPEUTICS, INC., priority 2022, published 2025).
Read-outs that look alike come from different tables or passages of the source.

System: cancer cell lines
Assay: Cancer cell proliferation activity (CellTiterGlo, 72 h)
Type: cell-based
Conditions: for IC50: 72 h, read-out: IC50
In short: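 Cells seeded overnight at 37 °C, then dosed with compound at 0.1% final DMSO and incubated 72 h at 37 °C (5% or 10% CO2 by medium).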

## Nc1ccn([C@@H]2O[C@H](CO)[C@@H](O)C2(F)F)c(=O)n1 [gemcitabine, reference compound]
5637 cell line (bladder)
  IC50: 1.6 nM
CLS439 cell line (bladder)
  IC50: 3.5 nM
HS729 cell line (muscle)
  IC50: 3.6 nM
HSS78T cell line
  IC50: 3.8 nM
JAR cell line (placenta)
  IC50: 2 nM
SKMELS cell line
  IC50: 3.2 nM
Homo sapiens, 22Rv1, 72 h, 22RV1 cell line (prostate)
  IC50: 13 nM
Homo sapiens, 786-0, 72 h, 786O cell line (kidney)
  IC50: 4.1 nM
Homo sapiens, A204, 72 h, A204 cell line (muscle)
  IC50: 0.9 nM
Homo sapiens, A549, 72 h, A549 cell line
  IC50: 3.1 nM
Homo sapiens, A673, 72 h, A673 cell line (bone)
  IC50: 3.5 nM
Homo sapiens, A2780, 72 h, A2780 cell line (ovary)
  IC50: 2.4 nM
Homo sapiens, A-375, 72 h, A375 cell line (skin)
  IC50: 2.3 nM
Homo sapiens, A-431, 72 h, A431 cell line (skin)
  IC50: 2.3 nM
Homo sapiens, ACHN, ACHN cell line (kidney)
  IC50: 1.5 nM
Homo sapiens, ASPC1, 72 h, ASPC1 cell line (pancreas)
  IC50: 5.2 nM
Homo sapiens, BT-20, 72 h, BT20 cell line (breast)
  IC50: 7 nM
Homo sapiens, BXPC-3, 72 h, BXPC3 cell line (pancreas)
  IC50: 2.4 nM
Homo sapiens, C-33-A, C33A cell line (cervical)
  IC50: 4.4 nM
Homo sapiens, CAKI-1, 72 h, CAKI1 cell line (kidney)
  IC50: 2.7 nM
Homo sapiens, COLO 205, 72 h, COLO205 cell line (colon)
  IC50: 20.2 nM
Homo sapiens, COLO-678, 72 h, COLO678 cell line (colon)
  IC50: 5.3 nM
Homo sapiens, Ca-Ski, CASKI cell line (cervical)
  IC50: 5.9 nM
Homo sapiens, Caco-2, 72 h, CACO2 cell line (colon)
  IC50: 7 nM
Homo sapiens, Calu-6, 72 h, CALU6 cell line (lung)
  IC50: 6.1 nM
Homo sapiens, DLD-1, 72 h, DLD1 cell line (colon)
  IC50: 5.3 nM
Homo sapiens, DU-145, 72 h, DU145 cell line (prostate)
  IC50: 2.1 nM
Homo sapiens, EFO-21, 72 h, EFO21 cell line (ovary)
  IC50: 1.9 nM
Homo sapiens, EJ-28, 72 h, EJ28 cell line (bladder)
  IC50: 2.1 nM
Homo sapiens, Granta-519, 72 h, GRANTA-519 cell line (hematological)
  IC50: 0.5 nM
Homo sapiens, HCT-15, 72 h, HCT15 cell line (colon)
  IC50: 4.7 nM
Homo sapiens, HCT-116, 72 h, HCT116 cell line (colon)
  IC50: 2 nM
Homo sapiens, HEK293, 72 h, HEK293 cell line (kidney)
  IC50: 20.9 nM
Homo sapiens, HL-60, 72 h, HL-60 cell line (hematological)
  IC50: 2.2 nM
Homo sapiens, HT-29, 72 h, HT29 cell line (colon)
  IC50: 3.5 nM
Homo sapiens, HT-1080, 72 h, HT1080 cell line (connective tissue)
  IC50: 1.7 nM
Homo sapiens, HeLa, HELA cell line (cervical)
  IC50: 6 nM
Homo sapiens, HepG2, 72 h, HEPG2 cell line (liver)
  IC50: 2 nM
Homo sapiens, IGROV-1, 72 h, IGROV1 cell line (ovary)
  IC50: 4.8 nM
Homo sapiens, IMR-90, 72 h, IMR.90 cell line
  IC50: 2.6 nM
Homo sapiens, J82, 72 h, J82 cell line (bladder)
  IC50: 5.1 nM
Homo sapiens, JEG-3, 72 h, JEG3 cell line (placenta)
  IC50: 5.3 nM
Homo sapiens, JIMT-1, 72 h, JIMT1 cell line (breast)
  IC50: 0.9 nM
Homo sapiens, K562, 72 h, K-562 cell line (hematological)
  IC50: 14.2 nM
Homo sapiens, Kasumi 1, 72 h, KASUMI-1 cell line (hematological)
  IC50: 3.5 nM
Homo sapiens, L-363, 72 h, L-363 cell line (hematological)
  IC50: 3.4 nM
Homo sapiens, LoVo, LOVO cell line (colon)
  IC50: 2.3 nM
Homo sapiens, MCF7, 72 h, MCF7 cell line (breast)
  IC50: 4.1 nM
Homo sapiens, MDA-MB-231, 72 h, MDAMB231 cell line (breast)
  IC50: 0.9 nM
Homo sapiens, MDA-MB-435, 72 h, MDAMB435 cell line (skin)
  IC50: 2.8 nM
Homo sapiens, MDA-MB-436, 72 h, MDAMB436 cell line (breast)
  IC50: 1.8 nM
Homo sapiens, MDA-MB-468, 72 h, MDAMB468 cell line (breast)
  IC50: 1.9 nM
Homo sapiens, MG-63, 72 h, MG63 cell line (bone)
  IC50: 4.8 nM
Homo sapiens, MHH-ES-1, 72 h, MHHES1 cell line (bone)
  IC50: 2 nM
Homo sapiens, MIA PaCa-2, 72 h, MIAPACA2 cell line (pancreas)
  IC50: 6.8 nM
Homo sapiens, MINO, MINO cell line (hematological)
  IC50: 0.3 nM
Homo sapiens, MV4-11, 72 h, MV4-11 cell line (hematological)
  IC50: 1.1 nM
Homo sapiens, NCI-H23, 72 h, NCI-H23 cell line (lung)
  IC50: 1.1 nM
Homo sapiens, NCI-H82, 72 h, NCIH82 cell line (lung)
  IC50: 7.6 nM
Homo sapiens, NCI-H292, 72 h, NCIH292 cell line (lung)
  IC50: 4.4 nM
Homo sapiens, NCI-H460, 72 h, NCIH460 cell line (lung)
  IC50: 5 nM
Homo sapiens, OVCAR-3, 72 h, OVCAR3 cell line (ovary)
  IC50: 3.1 nM
Homo sapiens, OVCAR-4, 72 h, OVCAR4 cell line (ovary)
  IC50: 4.9 nM
Homo sapiens, PANC-1, 72 h, PANC1 cell line (pancreas)
  IC50: 9.7 nM
Homo sapiens, PC-3, 72 h, PC3 cell line (prostate)
  IC50: 2.6 nM
Homo sapiens, PLC-PRF-5, 72 h, PLCPRF5 cell line (liver)
  IC50: 9.2 nM
Homo sapiens, Panc1005, 72 h, PANC1005 cell line (pancreas)
  IC50: 7.9 nM
Homo sapiens, RD, RD cell line (muscle)
  IC50: 2.3 nM
Homo sapiens, Ramos, RAMOS cell line (hematological)
  IC50: 0.6 nM
Homo sapiens, SAOS-2, 72 h, SAOS2 cell line (bone)
  IC50: 0.5 nM
Homo sapiens, SF-268, 72 h, SF268 cell line (brain)
  IC50: 4.1 nM
Homo sapiens, SF-295, 72 h, SF295 cell line (brain)
  IC50: 3.3 nM
Homo sapiens, SK-BR-3, 72 h, SKBR3 cell line (breast)
  IC50: 0.6 nM
Homo sapiens, SK-HEP1, 72 h, SKHEP1 cell line (liver)
  IC50: 4.7 nM
Homo sapiens, SK-LMS-1, 72 h, SKLMS1 cell line (uterus)
  IC50: 4.1 nM
Homo sapiens, SK-MEL-28, 72 h, SKMEL28 cell line (skin)
  IC50: 4.3 nM
Homo sapiens, SK-N-AS, SKNAS cell line (brain)
  IC50: 3.6 nM
Homo sapiens, SK-N-SH, SKNSH cell line (brain)
  IC50: 3.3 nM
Homo sapiens, SK-OV-3, 72 h, SKOV3 cell line (ovary)
  IC50: 23.7 nM
Homo sapiens, SNB-75, 72 h, SNB75 cell line (brain)
  IC50: 5.3 nM
Homo sapiens, SU-DHL10, 72 h, SU-DHL-10 cell line (hematological)
  IC50: 4.1 nM
Homo sapiens, SU-DHL-6, 72 h, SU-DHL-6 cell line (hematological)
  IC50: 6.8 nM
Homo sapiens, SW-620, 72 h, SW620 cell line (colon)
  IC50: 3 nM
Homo sapiens, T-24, 72 h, T24 cell line (bladder)
  IC50: 1.4 nM
Homo sapiens, TE-671, 72 h, TE671 cell line (muscle)
  IC50: 8.3 nM
Homo sapiens, THP-1, 72 h, THP-1 cell line (hematological)
  IC50: 1.1 nM
Homo sapiens, U2OS, U2OS cell line (bone)
  IC50: 5.7 nM
Homo sapiens, U-87 MG, U87MG cell line (brain)
  IC50: 1.5 nM
Homo sapiens, UMUC3, 72 h, UMUC3 cell line (bladder)
  IC50: 4.3 nM
Homo sapiens, UO-31, 72 h, UO31 cell line (kidney)
  IC50: 3.7 nM
Homo sapiens, WSU-NHL, WSU-NHL cell line (hematological)
  IC50: 4.5 nM
MT-3, 72 h, MT3 cell line (breast)
  IC50: 0.9 nM
NCI-H358M, NCIH358M cell line (lung)
  IC50: 3.5 nM
PBMC, PBMC (hematological)
  IC50: 12300 nM
RD-ES, RDES cell line (bone)
  IC50: 3.7 nM
Panel of cancer and non-cancer cell lines, figure legends FIG. 1-3
  cytotoxicity against a panel of cell lines (waterfall plot): indiscriminately cytotoxic
